Assay results as given in US20050053625A1, “Method of treating viral infections” (priority 2001, published 2005).

Legend:
HBV M protein = format: cell-based
Method: Hep G2 cells were transfected with an M only expression vector and the next day the cells divided equally into 6 well trays. Compound was added one day latter at the indicated concentrations and the media changed every two days. The presence of sub-viral particles in the medium was detected via the Abbott Diagnostics Auszyme Monoclonal Diagnostic Kit as per manufacture's directions. For Graph: Y-axis is the OD at 492. X-axis indicates the compounds or cells used in the assay.
Hep G2 cells transfected with the HBV M expression vector were treated with the glucosidase inhibitor NB-DNJ (4.5 mM and 6 days latter the amount of M protein associated with the culture medium (secreted) and the cells (retained) determined by ELISA. See text for more details. For graph: x-axis, Drug treatment and location of protein; for y-axis, % of HBV M protein as compared to untreated
Hep G2 cells were transfected with the M only expression vector and seeded as daughter flasks into 6 well trays. Following 4 days of treatment of glucosidase inhibitor (NB-DNJ (4.5 mM)), drug was either removed (in samples labels as —R) or left on as a control. Day 0 is the time in which drug was removed. […] Day 3 and Day 5 are days after drug removal. For Graph: Y-axis is the OD at 492. X-axis indicates the compounds or cells used in the assay. UN=untreated sample; Un-R is the untreated rebound sample; NB=N-butyl-DNJ; NB-R=N-butyl-DNJ rebound sample.
HBV M protein secretion is sensitive to glucosidase inhibition. Our previous work has determined that the secretion of HBV sub-viral particles containing the M protein was sensitive to glucosidase inhibition. (Mehta et al., 1997). That is, when Hep G2 2.215 cells were treated with the glucosidase inhibitor NB-DNJ, purified sub-viral particles appeared to lack the M protein. However, it was unclear if this was the result of the M protein's sensitivity to glucosidase inhibition or required some other viral factor. To test this hypothesis, an expression vector (pCMV-MS^−X) directs the expression of HBV M, but no other viral protein, was created. This “M only” expression vector was then used to determine if the M protein itself, in the absence of other viral functions, was sensitive to glucosidase inhibition. In addition, an expression vector, unable to express “M”, but able to express “S” was made on the same plasmid backbone as the “M” only vector, as was used as a control (pCMV-M^−SX). For these studies three imino sugars were used: N-butyl-DNJ, N-nonyl-DNJ and N-nonyl-DGJ. N-butyl-DNJ is our standard glucosidase inhibitor and has been used by several labs for over 10 years (Carlson et al.,1995, Block et al., 1994). […] Briefly, Hep G2 cells were transfected with the expression vectors pCMV HBV MS^−X and pCMV HBV M^−SX and subsequently seeded into fresh 6 well trays. The transfected cells were treated with the indicated concentrations of NB-DNJ, NN-DNJ or NN-DGJ (as a negative control) and three days latter the media analyzed for the presence of the HBV M or HBV S protein as described in Mehta et al, 2001. […] Fore example, concentrations of NN-DNJ which have no impact upon glycan inhibition, as determined by glycan analysis or α-1-acid-glycoprotein secretion, had no effect upon HBV M protein secretion (data not shown). In contrast to the effect of the glucosidase inhibitors on M protein secretion, the secretion of the HBV S protein was insensitive to either NB-DNJ or NN-DNJ providing further proof that the S protein is insensitive to glucosidase inhibition (data not shown; Block et al., 1994, Mehta et al., 1997, Werr & Prange, 1998). To determine if the secretion of the HBV M protein was prevented by another non-glucosidase mechanism, other compounds with the same alkyl side chain (tail) but altered imino sugar head groups, were synthesized. For example, NN-DGJ has the same chain length as NN-DNJ but is not a glucosidase inhibitor. […]

[1] = rat, in vivo
Method: Based upon the toxicology data obtained from a 14 day rat study on N-nonyl-DNJ, the toxicity with the alkovirs is predicated to be minimal. With N-nonyl-DNJ, toxicity primarily consisted of GI upset as a result of inhibiting the gut α-glucosidase enzymes involved in carbohydrate digestion. It should be noted that even though toxicity was observed, the maximum tolerated dose was determined to be 250 mg/kg bid. This was well above the amount required to achieve serum drug concentrations that were anti-viral.

liver cells = conditions: cited from earlier work
2.2.15 cells = assay: Selectivity index (CC90/IC90), MHBs secretion and MTT on 2.2.15 cells; format: cell-based
Excerpt: Selectivity index and cytotoxicity assessment. The concentration of compound needed to reduce the amount of MHBs present in the culture medium (of MHBs producing cells) by 90%, relative to untreated or placebo treated controls will be considered to be the IC90 (inhibitory concentration, 90). The toxicity of the compounds to the tissue cultures will initially be determined the MTT assay, as described in (Lu et al., 1997). Briefly, the amount of MTT enzyme functional in the same sets of cells used for determination of the ability of a compound to reduce the secretion of MHBs (see above) will be measured. Thus, the impact of a compound upon cell viability will be assessed in the same cells in which MHBs reductions have been determined. The concentration of compound that results in a reduction of MTT activity (compared to untreated cultures) of 90% will be considered to be the CC90. The selectivity index will be expressed as the CC90 divided by the IC90. Using these criteria, as determined by assays on 2.2.15 cells under the conditions described in prelim. evidence, the selectivity index of NNDNJ is approximate 100. Thus, compounds will be considered attractive if they have a selectivity index of greater than 100.

glucosidase [2] = assay: Glucosidase / glycan processing inhibition in cells; format: cell-based; conditions: 10 μg/ml
glucosidase [3] = conditions: cited from earlier work
[4] = set-up: species or system dogs; conditions: dog, in vivo
Method: Determination of the best glucosidase inhibitor and analysis of glucosidase inhibition. Although our work, confirmed by others, has shown that efficient secretion of the HBV glycoprotein MHBs and LHBs requires the function of the ER glucosidase, the specific glucosidase inhibitor that would be most sensible to use in vivo studies is not entirely obvious. […] However, NNDNJ has a dose limiting toxicity in dogs. Although this occurred at very high doses (more than 250 mg/kg), and we believe the toxicity was unrelated to the glucosidase inhibition mechanism), it seems wise to explore the possibility of alternative glucosidase inhibitors for the proposed study. Thus, Aim 1 will be to explore the possibility that other compounds, with less toxicity can be found. […] It is therefore an attractive back up compound. Thus, although NNDNJ could be used in the proposed studies as a “stalking horse” and for a proof of concept, it will be “parked” (held in reserve) as we test other glucosidase inhibitors in our portfolio. Identification of the most appropriate glucosidase inhibitor

With `CCCCCCCCCN1C[C@H](O)[C@@H](O)[C@H](O)[C@H]1CO` [NN-DNJ, 1,5-dideoxy-1,5-nonylylimino-D-glucitol] as the compound, how does the “amount of M protein in the culture medium” value (HBV M protein; 10 μg/ml) read?
Its value is “almost undetectable levels”.

What about the “HBV M protein secretion at concentrations with no impact upon glycan inhibition” value (HBV M protein; concentrations which have no impact upon glycan inhibition, data not shown) of the same compound?
Its value is “no effect”.

And the “secretion of the M protein” value (HBV M protein; indicated concentrations, three days, FIG. 4)?
The value was “prevented the secretion of the M protein”.

And the maximum tolerated dose [1]?
The maximum tolerated dose was 250 mg/kg bid.

And the toxicity observed [1]?
Its toxicity observed is “GI upset”.

And the “uptake by liver cells” value (liver cells)?
The value was “preferentially taken up by liver cells”.

And the “selectivity index (CC90 divided by IC90)” value (2.2.15 cells)?
The value was roughly 100.

And the inhibits glycan processing (glucosidase [2])?
The inhibits glycan processing was 15-20%.

What about the inhibit glucosidase (glucosidase [3]) of the same compound?
The inhibit glucosidase was 15-20%.

And the “dose at which dose limiting toxicity occurred” value [4]?
Its value is “more than 250 mg/kg”.
